Test results from patent US20260232610A1 (priority 2023, published 2026).
Like-named read-outs stand apart in the source and are kept apart here.

Legend:
E. acervulina = assay: Coccidiosis lesion scoring (Johnson and Reid, 0-4); format: in vivo, male Ross 308 broilers; details: score 0 (no lesions) to 4 (severe lesions)
[1] = compared to some amino acids such as glycine or arginine; cited from earlier work
E. maxima = assay: Coccidiosis lesion scoring (Johnson and Reid, 0-4); format: in vivo, male Ross 308 broilers; details: score 0 (no lesions) to 4 (severe lesions)
[2] = system: Eimeria (overall coccidiosis lesions); assay: Overall coccidiosis lesions (TMLS); format: in vivo, male Ross 308 broilers
[3] = system: experimentally induced NE (Eimeria spp. and Clostridium perfringens challenge); format: in vivo, male Ross 308 broilers
[4] = system: necrotic enteritis (Clostridium perfringens inoculations); format: in vivo, male Ross 308 broilers; details: for NE score: four chickens per pen
[5] = day 16 to day 22, challenge period

Compound: N=C(N)NCC(=O)O [GAA, guanidinoacetic acid]
- E. acervulina (lesion score) (E. acervulina; day 21): 0.08
- E. acervuline (lesion score) (E. acervulina; day 22): 0.06
- Solubility in water [1]: rather low solubility in water
- E. maxima (lesion score) (E. maxima; day 21): 0.52
- E. maxima (lesion score) (E. maxima; day 22): 0.88
- E. maxima and coccidiosis lesions compared with untreated control ([2]; day 21): lower amounts
- TMLS (overall coccidiosis lesions) ([2]; day 21): 0.60
- TMLS (overall coccidiosis lesions) ([2]; day 22): 0.94
- Effect on daily feed intake (DFI) over untreated birds ([3]; any period (p>0.05) except a small effect in the pre-challenge period): no significant effect
- FCR compared with untreated birds ([3]; challenge period and overall): significantly lower
- Daily weight gain (DWG) compared with IUC birds ([3]; challenge period from day 16 to d22): significantly higher
- BW_D0 (body weight) ([3]; day 0, before challenge, treatment mean): 46
- DFI_D0-D16 (daily feed intake) ([3]; day 0 to day 16, pre-challenge): 45.9
- DWG_D0-D16 (daily weight gain) ([3]; day 0 to day 16, pre-challenge): 41.0
- FCR_D0-D16 (feed conversion ratio) ([3]; day 0 to day 16, pre-challenge): 1.12
- DFI_D0-D42 (daily feed intake) ([3]; day 0 to day 42, overall): 112.1
- DWG_D0-D42 (daily weight gain) ([3]; day 0 to day 42, overall): 62.6
- FCR_D0-42 (feed conversion ratio) ([3]; day 0 to day 42, overall): 1.80
- BW_D16 (body weight) ([3]; day 16, treatment mean): 711
- DFI_D16-D22 (daily feed intake) [3, 5]: 84.4
- DWG_D16-D22 (daily weight gain) [3, 5]: 72.2
- FCR_D16-D22 (feed conversion ratio) [3, 5]: 1.18
- BW_D22 (body weight) ([3]; day 22, after NE challenge, treatment mean): 1161
- DFI_D22-D34 (daily feed intake) ([3]; day 22 to day 34): 117.3
- DWG_D22-D34 (daily weight gain) ([3]; day 22 to day 34): 75.3
- FCR_D22-D34 (feed conversion ratio) ([3]; day 22 to day 34): 1.56
- BW_D34 (body weight) ([3]; day 34, treatment mean): 2463
- DFI_D34-D42 (daily feed intake) ([3]; day 34 to day 42): 191.0
- DWG_D34-D42 (daily weight gain) ([3]; day 34 to day 42): 108.7
- FCR_D34-D42 (feed conversion ratio) ([3]; day 34 to day 42): 1.77
- BW_D42 (body weight) ([3]; day 42, treatment mean): 3332
- Weight gained more than the negative control ([3]; grower phase): approximately 9 g/day
- Weight gained more than the negative control ([3]; overall): approximately 2 g/day
- Percentage of NE related mortalities ([3]; overall, on par with antibiotics treated control): strongly reduced
- NE related mortality ([3]; percentage of NE related mortalities, overall): 3.33
- NE percentage (percentage of NE affected birds) ([4]; day 21): 85
- NE score ([4]; day 21): 3.52
- NE percentage (percentage of NE affected birds) ([4]; day 22): 73
- NE scores and percentage of NE affected birds compared with untreated control ([4]; day 22): lower NE scores and a lower percentage of NE affected birds
- NE score ([4]; day 22): 2.33
